Where two headings read alike, the source gives them in different places.
How the values were obtained:
Ret(h) = target: T1, Ret(h) (Homo sapiens, UniProt P07949); assay: Inhibition of other kinases IC50 (Table 2); assay type: biochemical
T1 construct: purchased Caliper Life Sciences
Protocol: (§1) The Aurora and other kinase assays described here were performed on two Caliper Life Sciences systems, the LC3000 and the Desktop Profiler. These provide data on enzyme activity via measurement of the relative amounts of phosphorylated or unphosphorylated fluorescently labelled substrate peptide at the end of an enzymatic reaction. These different states of peptide are resolved by applying a potential difference across the sample. The presence of a charged phosphate group on the product (as opposed to the substrate) causes a different peptide mobility between the two peptides. This is visualized by excitation of a fluorescent label on the substrate and product peptides and represented as peaks within the analysis software.

FAK(h) = target: T2, FAK(h) (Homo sapiens, UniProt Q05397); assay: Inhibition of other kinases IC50 (Table 2); assay type: biochemical
T2 construct: purchased Caliper Life Sciences
Protocol: as §1

Pyk2(h) = target: T3, Pyk2(h) (Homo sapiens, UniProt Q14289); assay: Inhibition of other kinases IC50 (Table 2); assay type: biochemical
T3 construct: purchased Caliper Life Sciences
Protocol: as §1

IRAK4(h) = target: T4, IRAK4(h) (Homo sapiens, UniProt Q9NWZ3); assay: Inhibition of other kinases IC50 (Table 2); assay type: biochemical
T4 construct: purchased Caliper Life Sciences
T4 sequence (Q9NWZ3 1-460): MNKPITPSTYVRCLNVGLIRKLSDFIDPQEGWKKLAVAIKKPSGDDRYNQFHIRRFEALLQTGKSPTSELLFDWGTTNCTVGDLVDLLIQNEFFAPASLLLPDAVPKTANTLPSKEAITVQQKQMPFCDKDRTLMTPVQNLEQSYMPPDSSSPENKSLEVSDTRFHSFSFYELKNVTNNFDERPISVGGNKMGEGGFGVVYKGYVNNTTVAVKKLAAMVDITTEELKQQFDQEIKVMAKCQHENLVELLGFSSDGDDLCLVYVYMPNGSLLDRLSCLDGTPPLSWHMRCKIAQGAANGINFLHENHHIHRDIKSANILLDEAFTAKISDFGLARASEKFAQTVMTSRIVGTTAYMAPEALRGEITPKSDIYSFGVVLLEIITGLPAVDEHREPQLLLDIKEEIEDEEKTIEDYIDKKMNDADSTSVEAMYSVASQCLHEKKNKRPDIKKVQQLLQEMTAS
Protocol: as §1

Tie2(h) = target: T5, Tie2(h) (Homo sapiens, UniProt Q02763); assay: Inhibition of other kinases IC50 (Table 2); assay type: biochemical
T5 construct: purchased Caliper Life Sciences
Protocol: as §1

[1] = snar bond
Aurora A = target: T6, Aurora A (Homo sapiens, UniProt O14965); assay: Aurora A enzyme assay (Caliper LC3000 mobility shift); assay type: biochemical
T6 construct: N-terminal GST fusion with full length Aurora A (1-403 amino acids); purchased Carna Biosciences 05-101
T6 sequence (O14965 1-403): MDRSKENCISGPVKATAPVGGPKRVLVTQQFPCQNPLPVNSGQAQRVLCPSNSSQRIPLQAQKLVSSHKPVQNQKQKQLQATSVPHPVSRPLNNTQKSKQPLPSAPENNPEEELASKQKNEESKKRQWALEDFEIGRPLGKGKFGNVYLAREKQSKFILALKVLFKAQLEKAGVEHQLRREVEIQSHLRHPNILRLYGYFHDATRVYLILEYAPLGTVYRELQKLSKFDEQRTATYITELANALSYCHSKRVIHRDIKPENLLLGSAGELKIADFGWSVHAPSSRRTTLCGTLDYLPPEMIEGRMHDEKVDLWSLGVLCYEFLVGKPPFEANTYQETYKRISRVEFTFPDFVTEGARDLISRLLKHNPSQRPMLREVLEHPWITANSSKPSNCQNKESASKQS
Method in brief: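 Full-length N-terminal GST-Aurora A (0.067 ng/µl) with 15 µM ATP and 1 µM FITC-LRRASLG peptide in 100 mM HEPES pH 7.5, 1 mM MgCl2, 1 mM DTT, 0.015% Brij-35, 90 min at 25 °C, EDTA-stopped. Off-chip mobility shift measured percent substrate conversion; IC50 from sigmoidal dose-response fit.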

MiaPaca2 = assay: Cellular activity MiaPaca2; assay type: cell-based; conditions: Homo sapiens, MIA PaCa-2
Method in brief: (§2)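 Cultured cells were exposed to compounds at various concentrations for roughly one hour to one week, enough to induce cell death or inhibit migration. Viable cells remaining after treatment were then counted.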

[2] = target: kinases (not incl. Aurora); assay: Kinase inhibition profile (not incl. Aurora); assay type: biochemical; conditions: at 1 μM; hit means >79% inhibition
Protocol: as §1
The Desktop Profiler utilizes the same principal as the LC 3000 for calculating percentage conversion of a substrate to product. Caliper Life Sciences provided proprietary flash frozen pre-made 384 well plates containing selected kinases. Each column in the 384 well plate contained a particular selected kinase. A second plate, the ‘substrate plate’ contained a mix of fluorescently labeled peptide substrate and ATP. These were arranged in columns so that transfer for substrate plate to enzyme plate provided the correct enzyme with the correct substrate/ATP concentration.
Compounds were added to a thawed enzyme plate in the desired format, in single concentrations. Reactions were initiated by transfer of the ubstrate/ATP mix from the substrate plate. The enzyme plate was incubated for 90 mins at 25 °C. The reaction was stopped by addition of […] of Stop Buffer (100 mM HEPES pH 7.5, 0.015% Brij-35, 10 mM EDTA (Sigma, E7889)).
Plates were read in a manner identical to that of the LC3000, and the ratio between substrate and product peaks provided the activity of the enzyme in that well. This was best represented by a plate heat map which colors each well by percent inhibition as compared to positive and negative controls (no inhibitors and no ATP respectively).

A549 = assay: Cellular activity A549; assay type: cell-based; conditions: Homo sapiens
Method in brief: as §2

Aurora B = Aurora B (Homo sapiens, UniProt Q96GD4); assay: Aurora B enzyme assay (Caliper); assay type: biochemical
Method in brief: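 Kinase activity was measured by microfluidic mobility-shift separation of phosphorylated and unphosphorylated fluorescently labelled substrate peptide at the end of the enzymatic reaction. Product and substrate were resolved by their charge difference and detected by fluorescence.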

Chain of Aurora B (Q96GD4 whole entry): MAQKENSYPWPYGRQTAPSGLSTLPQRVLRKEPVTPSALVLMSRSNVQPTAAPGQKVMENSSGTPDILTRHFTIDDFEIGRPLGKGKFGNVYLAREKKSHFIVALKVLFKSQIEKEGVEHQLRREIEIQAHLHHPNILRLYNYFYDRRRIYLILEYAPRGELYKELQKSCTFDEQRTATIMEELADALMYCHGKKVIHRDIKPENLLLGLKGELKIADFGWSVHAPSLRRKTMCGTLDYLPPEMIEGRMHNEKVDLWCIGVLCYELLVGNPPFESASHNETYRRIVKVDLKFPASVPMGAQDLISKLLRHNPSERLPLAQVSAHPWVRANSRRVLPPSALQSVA
T3 sequence (Q14289 whole entry): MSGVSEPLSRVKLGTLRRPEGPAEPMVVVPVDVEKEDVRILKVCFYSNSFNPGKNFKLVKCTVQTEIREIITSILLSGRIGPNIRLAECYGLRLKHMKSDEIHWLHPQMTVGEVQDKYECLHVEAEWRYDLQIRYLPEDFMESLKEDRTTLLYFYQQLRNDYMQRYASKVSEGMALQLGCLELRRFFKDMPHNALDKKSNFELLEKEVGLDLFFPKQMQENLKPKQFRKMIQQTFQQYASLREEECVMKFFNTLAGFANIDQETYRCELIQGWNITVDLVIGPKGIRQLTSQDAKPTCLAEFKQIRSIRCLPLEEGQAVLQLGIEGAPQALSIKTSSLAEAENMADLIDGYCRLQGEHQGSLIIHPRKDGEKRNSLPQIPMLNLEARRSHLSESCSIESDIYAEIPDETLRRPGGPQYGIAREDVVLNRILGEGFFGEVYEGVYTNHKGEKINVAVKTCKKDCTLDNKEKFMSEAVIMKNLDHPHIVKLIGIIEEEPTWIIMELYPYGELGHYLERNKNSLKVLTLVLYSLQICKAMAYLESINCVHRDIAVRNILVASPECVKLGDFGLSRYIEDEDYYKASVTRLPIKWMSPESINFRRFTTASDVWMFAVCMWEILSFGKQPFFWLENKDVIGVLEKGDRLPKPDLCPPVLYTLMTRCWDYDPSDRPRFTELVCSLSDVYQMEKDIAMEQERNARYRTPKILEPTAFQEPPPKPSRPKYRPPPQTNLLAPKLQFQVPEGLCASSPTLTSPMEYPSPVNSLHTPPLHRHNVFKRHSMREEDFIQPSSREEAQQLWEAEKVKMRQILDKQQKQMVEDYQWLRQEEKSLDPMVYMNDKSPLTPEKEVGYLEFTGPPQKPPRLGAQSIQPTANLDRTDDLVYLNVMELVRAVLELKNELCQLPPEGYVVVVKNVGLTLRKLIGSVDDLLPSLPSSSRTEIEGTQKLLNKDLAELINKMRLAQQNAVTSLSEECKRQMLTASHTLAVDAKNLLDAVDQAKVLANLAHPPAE
T5 sequence (Q02763 23-1124): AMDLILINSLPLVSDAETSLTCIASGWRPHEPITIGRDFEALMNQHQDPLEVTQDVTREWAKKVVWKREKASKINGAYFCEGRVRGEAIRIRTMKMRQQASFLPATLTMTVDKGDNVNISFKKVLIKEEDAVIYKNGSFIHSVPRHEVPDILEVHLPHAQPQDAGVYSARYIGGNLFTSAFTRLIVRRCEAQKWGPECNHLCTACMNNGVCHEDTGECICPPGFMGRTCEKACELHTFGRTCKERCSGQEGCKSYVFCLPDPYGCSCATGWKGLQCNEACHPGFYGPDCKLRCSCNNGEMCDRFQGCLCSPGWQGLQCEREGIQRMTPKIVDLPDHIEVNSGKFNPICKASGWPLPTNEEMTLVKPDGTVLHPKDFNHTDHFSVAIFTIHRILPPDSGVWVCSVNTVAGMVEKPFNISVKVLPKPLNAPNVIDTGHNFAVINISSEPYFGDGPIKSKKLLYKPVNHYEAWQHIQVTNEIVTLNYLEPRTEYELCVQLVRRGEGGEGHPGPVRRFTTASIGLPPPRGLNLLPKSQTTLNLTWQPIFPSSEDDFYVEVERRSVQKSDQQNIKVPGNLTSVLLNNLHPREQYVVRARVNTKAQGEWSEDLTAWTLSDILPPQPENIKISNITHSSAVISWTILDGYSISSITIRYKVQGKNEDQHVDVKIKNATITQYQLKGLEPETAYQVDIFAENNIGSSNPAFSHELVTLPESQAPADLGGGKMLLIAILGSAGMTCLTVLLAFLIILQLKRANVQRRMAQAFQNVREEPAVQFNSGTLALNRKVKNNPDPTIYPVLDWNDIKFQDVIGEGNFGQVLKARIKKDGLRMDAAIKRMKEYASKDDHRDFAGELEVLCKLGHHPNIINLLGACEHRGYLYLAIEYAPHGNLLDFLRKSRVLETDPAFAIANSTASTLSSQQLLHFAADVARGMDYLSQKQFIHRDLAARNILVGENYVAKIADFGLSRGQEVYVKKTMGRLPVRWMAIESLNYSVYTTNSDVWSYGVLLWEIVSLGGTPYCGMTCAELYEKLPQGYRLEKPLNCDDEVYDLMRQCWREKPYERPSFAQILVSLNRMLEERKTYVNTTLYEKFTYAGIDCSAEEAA
T2 sequence (Q05397 whole entry): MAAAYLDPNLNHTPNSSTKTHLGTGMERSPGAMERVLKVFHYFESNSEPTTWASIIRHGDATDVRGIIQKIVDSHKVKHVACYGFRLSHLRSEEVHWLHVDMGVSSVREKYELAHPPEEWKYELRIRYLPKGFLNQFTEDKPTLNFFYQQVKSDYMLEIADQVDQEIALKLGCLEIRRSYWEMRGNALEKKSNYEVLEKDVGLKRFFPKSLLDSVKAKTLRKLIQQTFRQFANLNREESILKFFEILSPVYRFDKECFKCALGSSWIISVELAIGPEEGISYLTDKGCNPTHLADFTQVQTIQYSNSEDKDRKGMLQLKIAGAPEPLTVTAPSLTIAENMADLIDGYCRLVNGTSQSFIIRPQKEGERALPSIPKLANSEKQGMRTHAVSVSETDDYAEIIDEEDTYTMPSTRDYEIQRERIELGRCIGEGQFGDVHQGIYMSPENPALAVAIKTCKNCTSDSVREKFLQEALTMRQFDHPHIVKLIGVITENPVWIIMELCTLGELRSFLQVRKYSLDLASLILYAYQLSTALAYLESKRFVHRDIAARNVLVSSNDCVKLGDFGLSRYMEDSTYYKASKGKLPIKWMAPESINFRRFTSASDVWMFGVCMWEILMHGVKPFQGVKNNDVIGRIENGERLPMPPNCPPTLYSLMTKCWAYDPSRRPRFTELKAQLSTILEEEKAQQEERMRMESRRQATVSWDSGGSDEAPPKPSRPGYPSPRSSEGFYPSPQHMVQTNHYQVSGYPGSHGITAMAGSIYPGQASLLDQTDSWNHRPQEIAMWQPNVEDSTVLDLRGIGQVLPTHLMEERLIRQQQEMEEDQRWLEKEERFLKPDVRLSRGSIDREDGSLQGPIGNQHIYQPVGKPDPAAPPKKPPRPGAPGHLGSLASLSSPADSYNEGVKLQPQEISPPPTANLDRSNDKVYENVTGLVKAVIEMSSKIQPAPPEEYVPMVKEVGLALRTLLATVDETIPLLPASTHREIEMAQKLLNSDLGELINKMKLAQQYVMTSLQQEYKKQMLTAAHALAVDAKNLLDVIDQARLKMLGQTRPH
T1 sequence (P07949 29-1114): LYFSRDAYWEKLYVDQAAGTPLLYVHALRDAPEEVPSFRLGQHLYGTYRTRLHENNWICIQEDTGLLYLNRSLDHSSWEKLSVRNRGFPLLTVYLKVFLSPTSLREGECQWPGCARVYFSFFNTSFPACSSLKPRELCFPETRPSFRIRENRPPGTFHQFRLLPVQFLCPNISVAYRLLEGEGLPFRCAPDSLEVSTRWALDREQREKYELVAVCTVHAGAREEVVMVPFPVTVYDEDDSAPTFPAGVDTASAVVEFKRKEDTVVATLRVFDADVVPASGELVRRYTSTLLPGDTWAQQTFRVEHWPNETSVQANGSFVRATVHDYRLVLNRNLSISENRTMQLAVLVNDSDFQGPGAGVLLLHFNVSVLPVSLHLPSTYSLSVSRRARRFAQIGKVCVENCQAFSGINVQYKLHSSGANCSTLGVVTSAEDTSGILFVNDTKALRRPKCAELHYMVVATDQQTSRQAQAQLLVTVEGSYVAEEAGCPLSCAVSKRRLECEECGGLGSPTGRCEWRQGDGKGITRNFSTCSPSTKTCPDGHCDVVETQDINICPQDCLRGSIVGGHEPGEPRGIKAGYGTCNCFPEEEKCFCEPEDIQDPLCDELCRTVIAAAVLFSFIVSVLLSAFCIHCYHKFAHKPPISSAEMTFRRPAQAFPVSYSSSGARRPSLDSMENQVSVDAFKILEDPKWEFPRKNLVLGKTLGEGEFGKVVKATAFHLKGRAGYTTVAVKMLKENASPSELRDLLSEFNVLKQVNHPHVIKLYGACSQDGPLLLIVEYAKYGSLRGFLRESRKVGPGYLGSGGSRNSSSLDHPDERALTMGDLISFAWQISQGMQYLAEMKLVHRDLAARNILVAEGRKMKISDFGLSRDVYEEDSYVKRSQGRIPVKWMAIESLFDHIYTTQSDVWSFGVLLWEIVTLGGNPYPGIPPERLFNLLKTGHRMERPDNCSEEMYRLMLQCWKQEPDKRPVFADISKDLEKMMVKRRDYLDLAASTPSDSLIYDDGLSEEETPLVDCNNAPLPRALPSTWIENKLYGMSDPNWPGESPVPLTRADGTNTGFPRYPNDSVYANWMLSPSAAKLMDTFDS

IC50 (Ret(h))	IC50 (FAK(h))	IC50 (Pyk2(h))	IC50 (IRAK4(h))	IC50 (Tie2(h))	IC50 (Aurora A)	IC50 (MiaPaca2)	Kinase Inhibition Profile (not incl. Aurora) # kinases hit/# kinases tested [2]	IC50 (A549)	IC50 (Aurora B)	SMILES	ring closure, yield of all isomers ([1]; from NC(=O)[C@H]1[C@@H]2CC(CNCc3cccc(N)c3)[C@@H](C2)[C@H]1Nc1nc(Cl)ncc1F)	ring closure, yield of all isomers ([1]; from NC(=O)[C@H]1[C@@H]2CC(CNCCc3cccc(N)c3)[C@@H](C2)[C@H]1Nc1nc(Cl)ncc1F)
1 to 6.25 µM	0.101 to 1 µM	0.101 to 1 µM	0.001 to 0.1 µM	1 to 6.25 µM						NC(=O)[C@H]1[C@H]2C[C@H]3[C@H]1Nc1nc(ncc1F)Nc1cccc(c1)CCS[C@@H]3C2 [Example 18]		
					0.101 to 1 µM	0.001 to 0.1 µM	1/50 at 1 μM	0.001 to 0.1 µM	0.001 to 0.1 µM	NC(=O)[C@H]1[C@@H]2CC3CNCc4cccc(c4)Nc4ncc(F)c(n4)N[C@@H]1[C@@H]3C2 (some centres unmarked)	7.6%	
					0.101 to 1 µM	0.101 to 1 µM	1/53 at 1 μM	0.101 to 1 µM	0.001 to 0.1 µM	NC(=O)[C@H]1[C@@H]2CC3CNCCc4cccc(c4)Nc4ncc(F)c(n4)N[C@@H]1[C@@H]3C2 (some centres unmarked)		18.5%

Source: patent publication US8815872B2, “Macrocyclics pyrimidines as aurora kinase inhibitors” (Merck Patent GmbH, priority 2008, dated 2014)
